The values below come from ChEMBL document CHEMBL5653602, “Biochemical characterization of GSK1070916, a potent and selective inhibitor of Aurora B and Aurora C kinases with an extremely long residence time1” (Biochem J, 2009).

Activity calls are given as the source filed them. No cut-off for these calls is given here.

Experiment [1] deals with T1, Aurora kinase B/Inner centromere protein (Homo sapiens) (UniProt Q96GD4+Q9NQS7).
Description: Binding affinity to human AurB/INCENP assessed as dissociation half life
Experiment [2] has as its target T2, Aurora-C/INCENP (Homo sapiens, UniProt Q9NQS7+Q9UQB9). The experiment is described as follows: Binding affinity to human AurC/INCENP assessed as inhibition constant using aurora sox peptide as substrate incubated for 60 mins in presence of ATP by fluorescence based assay. It is filed as protein-complex assay.
Experiment [3] addresses T2, Aurora-C/INCENP. Nature of the experiment: Inhibition of human AurC/INCENP in PBS using Biotin-Ahx-RARRRLSFFFFAKKK-NH2 as substrate incubated for 30 mins in presence of ATP. It is filed as protein-complex assay.
The target of experiment [4] is Vascular endothelial growth factor receptor 1 (Homo sapiens, UniProt P17948). The experiment is described as follows: Inhibition of FLT1 (unknown origin).
Sequence of Vascular endothelial growth factor receptor 1 (P17948 whole entry): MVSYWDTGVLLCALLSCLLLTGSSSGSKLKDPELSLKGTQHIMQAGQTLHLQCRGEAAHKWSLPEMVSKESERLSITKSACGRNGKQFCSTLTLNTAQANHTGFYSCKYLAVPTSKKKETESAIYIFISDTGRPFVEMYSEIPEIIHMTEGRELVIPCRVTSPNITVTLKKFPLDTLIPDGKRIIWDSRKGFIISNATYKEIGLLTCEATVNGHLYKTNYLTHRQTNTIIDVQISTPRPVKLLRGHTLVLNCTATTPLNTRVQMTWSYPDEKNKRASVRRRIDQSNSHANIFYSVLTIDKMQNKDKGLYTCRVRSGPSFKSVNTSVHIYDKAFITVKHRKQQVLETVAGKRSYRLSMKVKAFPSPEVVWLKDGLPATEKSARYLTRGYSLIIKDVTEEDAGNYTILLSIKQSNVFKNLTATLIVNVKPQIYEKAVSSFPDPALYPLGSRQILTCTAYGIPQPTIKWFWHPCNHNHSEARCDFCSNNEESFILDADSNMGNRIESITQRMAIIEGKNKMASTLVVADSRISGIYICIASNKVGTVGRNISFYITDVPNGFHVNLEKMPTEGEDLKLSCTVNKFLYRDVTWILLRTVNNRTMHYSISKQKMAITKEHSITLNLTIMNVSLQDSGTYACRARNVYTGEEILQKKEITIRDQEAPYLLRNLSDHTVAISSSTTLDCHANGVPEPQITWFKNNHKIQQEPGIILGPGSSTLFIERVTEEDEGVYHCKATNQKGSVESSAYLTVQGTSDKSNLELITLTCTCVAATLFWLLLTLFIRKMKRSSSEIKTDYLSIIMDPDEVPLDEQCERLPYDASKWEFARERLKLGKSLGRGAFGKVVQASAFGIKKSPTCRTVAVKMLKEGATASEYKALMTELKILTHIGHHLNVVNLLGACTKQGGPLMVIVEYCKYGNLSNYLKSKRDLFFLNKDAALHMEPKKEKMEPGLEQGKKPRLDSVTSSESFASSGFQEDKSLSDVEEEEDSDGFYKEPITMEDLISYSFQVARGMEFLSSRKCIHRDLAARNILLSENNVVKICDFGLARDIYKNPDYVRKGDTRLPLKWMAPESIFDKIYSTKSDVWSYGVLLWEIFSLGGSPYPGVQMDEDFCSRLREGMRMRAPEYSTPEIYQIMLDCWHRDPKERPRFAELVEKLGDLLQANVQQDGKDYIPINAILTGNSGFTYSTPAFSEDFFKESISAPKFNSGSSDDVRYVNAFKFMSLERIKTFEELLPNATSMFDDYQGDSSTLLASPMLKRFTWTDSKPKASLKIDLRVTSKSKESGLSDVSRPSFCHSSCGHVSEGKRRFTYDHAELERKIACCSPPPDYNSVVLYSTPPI
The target in experiment [5] is T1, Aurora kinase B/Inner centromere protein (Homo sapiens). The following applies: dose 100.0 nM, time 60.0 min.
Experiment [6] concerns the target T3, Aurora kinase B/Inner centromere protein (Homo sapiens, UniProt Q96GD4). The experiment is described as follows: Inhibition of human AurB/INCENP in PBS using Biotin-Ahx-RARRRLSFFFFAKKK-NH2 as substrate incubated for 30 mins in presence of ATP. It counts as protein-complex assay.
Experiment [7] addresses Serine/threonine-protein kinase SIK1 (Homo sapiens, UniProt P57059). The experiment is described as follows: Inhibition of SIK (unknown origin).
For experiment [8], the target named is T3, Aurora kinase B/Inner centromere protein. The experiment is described as follows: Binding affinity to human AurB/INCENP assessed as inhibition constant using aurora sox peptide as substrate incubated for 60 mins in presence of ATP by fluorescence based assay. It counts as protein-complex assay.
Experiment [9] concerns the target Angiopoietin-1 receptor (Homo sapiens, UniProt Q02763). Nature of the experiment: Inhibition of TIE2 (unknown origin).
For experiment [10], the target named is T1, Aurora kinase B/Inner centromere protein (Homo sapiens). The following applies: dose 100.0 nM, time 60.0 min. The source holds these as a separate data set.
Experiment [11] concerns the target Aurora-C/INCENP (Homo sapiens) (UniProt Q9UQB9+Q9NQS7). The settings on record: dose 100.0 nM, time 60.0 min.

T3 sequence (Q96GD4 whole entry): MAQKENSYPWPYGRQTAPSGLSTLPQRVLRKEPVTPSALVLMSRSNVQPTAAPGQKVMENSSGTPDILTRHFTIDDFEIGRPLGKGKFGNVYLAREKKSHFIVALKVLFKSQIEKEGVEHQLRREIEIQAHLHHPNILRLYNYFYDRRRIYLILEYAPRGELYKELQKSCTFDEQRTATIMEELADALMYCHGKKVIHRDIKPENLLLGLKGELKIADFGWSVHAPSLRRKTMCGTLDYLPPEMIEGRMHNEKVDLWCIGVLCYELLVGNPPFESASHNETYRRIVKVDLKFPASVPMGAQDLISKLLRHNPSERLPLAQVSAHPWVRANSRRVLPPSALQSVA
T3 sequence (Q9NQS7 whole entry, further chain): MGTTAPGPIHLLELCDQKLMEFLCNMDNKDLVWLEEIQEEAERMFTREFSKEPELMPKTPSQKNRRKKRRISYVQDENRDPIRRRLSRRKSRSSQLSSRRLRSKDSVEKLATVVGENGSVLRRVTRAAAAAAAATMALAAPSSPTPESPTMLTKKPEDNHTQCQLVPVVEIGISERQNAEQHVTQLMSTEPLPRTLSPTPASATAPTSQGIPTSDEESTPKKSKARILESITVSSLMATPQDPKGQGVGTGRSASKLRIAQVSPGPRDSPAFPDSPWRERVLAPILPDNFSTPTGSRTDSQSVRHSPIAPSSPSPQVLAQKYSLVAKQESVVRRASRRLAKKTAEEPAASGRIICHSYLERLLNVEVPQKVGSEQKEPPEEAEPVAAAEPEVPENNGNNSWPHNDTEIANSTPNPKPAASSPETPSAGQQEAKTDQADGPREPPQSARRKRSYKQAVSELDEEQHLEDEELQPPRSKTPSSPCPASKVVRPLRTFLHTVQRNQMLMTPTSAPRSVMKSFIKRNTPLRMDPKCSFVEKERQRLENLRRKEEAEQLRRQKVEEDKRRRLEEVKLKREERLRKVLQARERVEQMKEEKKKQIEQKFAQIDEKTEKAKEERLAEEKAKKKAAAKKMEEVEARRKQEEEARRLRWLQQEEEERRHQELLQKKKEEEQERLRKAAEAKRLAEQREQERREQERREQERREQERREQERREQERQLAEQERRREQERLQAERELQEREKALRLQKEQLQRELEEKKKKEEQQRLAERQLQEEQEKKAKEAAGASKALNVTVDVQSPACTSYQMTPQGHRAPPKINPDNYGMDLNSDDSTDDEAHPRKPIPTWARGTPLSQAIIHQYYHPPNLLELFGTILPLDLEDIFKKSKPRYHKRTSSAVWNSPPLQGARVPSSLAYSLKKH
T2 sequence (Q9UQB9 whole entry): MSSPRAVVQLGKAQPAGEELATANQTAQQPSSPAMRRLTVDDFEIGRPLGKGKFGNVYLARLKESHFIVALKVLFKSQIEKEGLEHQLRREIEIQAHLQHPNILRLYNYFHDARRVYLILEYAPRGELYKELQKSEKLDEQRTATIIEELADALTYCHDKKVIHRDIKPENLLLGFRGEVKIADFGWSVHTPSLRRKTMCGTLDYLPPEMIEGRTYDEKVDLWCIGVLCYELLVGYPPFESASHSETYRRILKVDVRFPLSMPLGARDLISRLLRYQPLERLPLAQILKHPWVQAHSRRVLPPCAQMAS
T2 sequence (Q9NQS7 whole entry): as the sequence (Q9NQS7 whole entry, further chain) above
Sequence of Angiopoietin-1 receptor (Q02763 whole entry): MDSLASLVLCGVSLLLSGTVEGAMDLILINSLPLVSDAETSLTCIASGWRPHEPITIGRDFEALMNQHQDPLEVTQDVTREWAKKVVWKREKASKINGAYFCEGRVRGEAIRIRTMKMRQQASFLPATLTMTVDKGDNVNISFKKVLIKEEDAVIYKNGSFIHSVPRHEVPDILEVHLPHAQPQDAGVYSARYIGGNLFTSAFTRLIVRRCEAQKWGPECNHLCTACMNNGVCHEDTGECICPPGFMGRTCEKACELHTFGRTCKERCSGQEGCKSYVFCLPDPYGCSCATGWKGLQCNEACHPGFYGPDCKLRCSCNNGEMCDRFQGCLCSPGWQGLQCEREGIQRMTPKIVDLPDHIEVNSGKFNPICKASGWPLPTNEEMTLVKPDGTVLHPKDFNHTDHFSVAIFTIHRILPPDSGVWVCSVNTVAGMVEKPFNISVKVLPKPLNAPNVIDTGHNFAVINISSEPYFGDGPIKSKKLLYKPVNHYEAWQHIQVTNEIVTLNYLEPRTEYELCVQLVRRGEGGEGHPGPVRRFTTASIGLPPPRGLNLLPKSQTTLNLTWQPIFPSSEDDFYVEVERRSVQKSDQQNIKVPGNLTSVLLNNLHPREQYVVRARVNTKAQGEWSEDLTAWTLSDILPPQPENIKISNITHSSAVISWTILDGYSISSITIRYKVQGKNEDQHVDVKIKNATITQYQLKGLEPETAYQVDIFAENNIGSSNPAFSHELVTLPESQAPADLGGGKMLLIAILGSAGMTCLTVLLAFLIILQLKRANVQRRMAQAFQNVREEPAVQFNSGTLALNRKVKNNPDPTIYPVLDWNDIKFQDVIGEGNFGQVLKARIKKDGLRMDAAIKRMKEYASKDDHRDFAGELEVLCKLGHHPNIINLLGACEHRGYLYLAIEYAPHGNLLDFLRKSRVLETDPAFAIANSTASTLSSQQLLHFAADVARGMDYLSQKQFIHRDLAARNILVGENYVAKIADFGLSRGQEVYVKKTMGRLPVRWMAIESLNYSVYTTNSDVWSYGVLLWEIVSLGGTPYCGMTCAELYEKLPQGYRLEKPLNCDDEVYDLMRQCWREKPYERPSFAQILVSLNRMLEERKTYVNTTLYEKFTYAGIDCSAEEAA
Sequence of Serine/threonine-protein kinase SIK1 (P57059 whole entry): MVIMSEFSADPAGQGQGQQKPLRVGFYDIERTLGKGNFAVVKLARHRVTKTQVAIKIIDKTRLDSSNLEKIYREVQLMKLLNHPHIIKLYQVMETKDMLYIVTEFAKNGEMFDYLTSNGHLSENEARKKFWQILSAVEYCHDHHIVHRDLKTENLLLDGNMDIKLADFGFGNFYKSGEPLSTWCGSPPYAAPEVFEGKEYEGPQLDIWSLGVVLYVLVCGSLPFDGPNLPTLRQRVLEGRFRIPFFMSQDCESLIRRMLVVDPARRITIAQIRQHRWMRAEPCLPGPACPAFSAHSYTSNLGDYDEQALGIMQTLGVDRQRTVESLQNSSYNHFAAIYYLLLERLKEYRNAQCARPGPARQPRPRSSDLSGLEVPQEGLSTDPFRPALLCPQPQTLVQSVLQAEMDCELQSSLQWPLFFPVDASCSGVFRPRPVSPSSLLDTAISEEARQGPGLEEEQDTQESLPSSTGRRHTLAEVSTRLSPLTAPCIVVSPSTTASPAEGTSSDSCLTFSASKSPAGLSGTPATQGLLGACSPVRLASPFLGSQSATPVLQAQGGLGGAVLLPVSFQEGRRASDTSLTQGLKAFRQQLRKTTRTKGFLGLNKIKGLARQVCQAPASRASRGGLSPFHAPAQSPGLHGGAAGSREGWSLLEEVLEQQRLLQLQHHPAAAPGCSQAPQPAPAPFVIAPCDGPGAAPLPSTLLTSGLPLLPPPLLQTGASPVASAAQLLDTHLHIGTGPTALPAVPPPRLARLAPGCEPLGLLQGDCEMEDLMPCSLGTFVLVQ

On to `CCN(CCCOc1ccc2c(Nc3cc(CC(=O)Nc4cccc(F)c4)[nH]n3)ncnc2c1)CCOP(=O)(O)O`, for which the T1/2 in [1] was 15 min.

The compound `Cc1cc(Nc2cc(N3CCN(C)CC3)nc(Sc3ccc(NC(=O)C4CC4)cc3)n2)n[nH]1` gave a T1/2 in experiment [1] of 25 min.

For the compound `CCn1cc(-c2ccnc3[nH]c(-c4cccc(CN(C)C)c4)cc23)c(-c2ccc(NC(=O)N(C)C)cc2)n1` [GSK-1070916], the Ki (usually the dissociation constant of the complex between target and ligand, obtained from inhibition or displacement) was found to be 1.45 nM in experiment [2] and 0.38 nM in [8]. Also, the IC50 (usually the point on the concentration scale where inhibition reaches its midpoint) in experiment [3] was 6.5 nM; in [4], 42 nM; in experiment [6] it was 3.5 nM; in experiment [7] it was 70 nM; in [9] it was 59 nM. For the same compound, the T1/2 is over 480 min in experiment [5] and 270 min in [11]. Moreover, the inhibition result in experiment [10] was “Active”.
